Test results taken from patent US6914045B2, “Glycopeptide antibiotics” (Wyeth Holdings Corporation, priority 2001, dated 2005).
≈ marks a conversion by molar mass, not a printed value.

What was measured:
Test in all cases: in vitro antibacterial evaluation, MIC by broth dilution
Format in all cases: cell-based
[1] = test system: Enterococcus sp.
In short: (§1)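 Step 1: dilute antibiotic across 64-0.06 μg/mL in Muller-Hinton II […]. Step 2: inoculate at 5×10^5 CFU/mL.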

[2] = test system: Staphylococcus sp.; settings: broth dilution, 18 hours at 35° C.; for MIC Staphylococcus aureus (ATCC 29213): strain ATCC 29213; for MIC Staphylococcus aureus (GC 1131): strain GC 1131; for MIC Staphylococcus aureus (GC 3051): strain GC 3051; for MIC Staphylococcus aureus (GC 3053): strain GC 3053; for MIC Staphylococcus aureus (GC 4541): strain GC 4541; for MIC Staphylococcus aureus (GC 4542): strain GC 4542; for MIC Staphylococcus aureus-SMITH (GC 4543): strain GC 4543; for MIC Staphylococcus aureus (GC 4544): strain GC 4544; for MIC Staphylococcus aureus (GC 4545): strain GC 4545; for MIC Staphylococcus haemolyticus (GC 4546): strain GC 4546; for MIC Coagulase Negative Staphylococcus (GC 4547): strain GC 4547; for MIC Coagulase Negative Staphylococcus (GC 4548): strain GC 4548; for MIC Coagulase Negative Staphylococcus (GC 4549): strain GC 4549; for MIC Coagulase Negative Staphylococcus (GC 4551): strain GC 4551; for MIC Coagulase Negative Staphylococcus (GC 6257): strain GC 6257
In short: as §1

[3] = test system: Streptococcus sp.
In short: as §1

[4] = test system: Escherichia coli; settings: 18 hours at 35° C.
In short: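 MIC is the lowest antibiotic concentration (tested 64-0.06 μg/mL) preventing growth of a 5×10^5 CFU/mL inoculum. Determined by broth dilution in Mueller-Hinton II medium following NCCLS standard M7-A2.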

[5] = broth dilution, 18 hours at 35° C.

COc1cc(-c2nc3cc(CC4NC(=O)C(C(C)c5ccccc5)NC(=O)CNC(=O)C(CO)NC(=O)C(C(O)C5CNC(=N)N5C5OC(CO)C(O)C(O)C5O)NC(=O)C(C(O)C5CNC(=N)N5)NC4=O)ccc3o2)cc(OC)c1OC (stereo not drawn) [Example 34, Cyclo[3-[2-(3,4,5-trimethoxyphenyl)-1,3-benzoxazol-5-yl]alanyl-3-(2-iminoimidazolidin-4-yl)seryl-3-(3-hexopyranosyl-2-iminoimidazolidin-4-yl)serylserylglycyl-β-methylphenyl-alanyl]]
MIC Enterococcus faecalis (ATCC 29212) ([1]; strain ATCC 29212; broth dilution, 18 hours at 35° C.): 64 mg/L (≈ 55.1 µM)
MIC Enterococcus faecalis (GC 2242) ([1]; strain GC 2242; broth dilution, 18 hours at 35° C.): 32 mg/L (≈ 27.5 µM)
MIC Enterococcus faecium (GC 2243) ([1]; strain GC 2243; broth dilution, 18 hours at 35° C.): 32 mg/L (≈ 27.5 µM)
MIC Enterococcus faecalis (GC 2691) ([1]; strain GC 2691; broth dilution, 18 hours at 35° C.): 32 mg/L (≈ 27.5 µM)
MIC Enterococcus faecalis (GC 3059) ([1]; strain GC 3059; broth dilution, 18 hours at 35° C.): 32 mg/L (≈ 27.5 µM)
MIC Enterococcus faecalis (GC 4552) ([1]; strain GC 4552; broth dilution, 18 hours at 35° C.): 32 mg/L (≈ 27.5 µM)
MIC Enterococcus faecalis (GC 4553) ([1]; strain GC 4553; broth dilution, 18 hours at 35° C.): 32 mg/L (≈ 27.5 µM)
MIC Enterococcus faecalis (GC 4554) ([1]; strain GC 4554; broth dilution, 18 hours at 35° C.): 32 mg/L (≈ 27.5 µM)
MIC Enterococcus faecium (GC 4556) ([1]; strain GC 4556; broth dilution, 18 hours at 35° C.): 64 mg/L (≈ 55.1 µM)
MIC Enterococcus faecium (GC 4557) ([1]; strain GC 4557; broth dilution, 18 hours at 35° C.): 8 mg/L (≈ 6.88 µM)
MIC Enterococcus avium (GC 4558) ([1]; strain GC 4558; broth dilution, 18 hours at 35° C.): 16 mg/L (≈ 13.8 µM)
MIC Enterococcus faecalis (GC 6189) ([1]; strain GC 6189; broth dilution, 18 hours at 35° C.): 64 mg/L (≈ 55.1 µM)
MIC Staphylococcus aureus (ATCC 29213) [2]: 32 mg/L (≈ 27.5 µM)
MIC Staphylococcus aureus (GC 1131) [2]: 32 mg/L (≈ 27.5 µM)
MIC Staphylococcus aureus (GC 3051) [2]: 16 mg/L (≈ 13.8 µM)
MIC Staphylococcus aureus (GC 3053) [2]: 32 mg/L (≈ 27.5 µM)
MIC Staphylococcus aureus (GC 4541) [2]: 32 mg/L (≈ 27.5 µM)
MIC Staphylococcus aureus (GC 4542) [2]: 32 mg/L (≈ 27.5 µM)
MIC Staphylococcus aureus-SMITH (GC 4543) [2]: 16 mg/L (≈ 13.8 µM)
MIC Staphylococcus aureus (GC 4544) [2]: 16 mg/L (≈ 13.8 µM)
MIC Staphylococcus aureus (GC 4545) [2]: 32 mg/L (≈ 27.5 µM)
MIC Staphylococcus haemolyticus (GC 4546) [2]: 8 mg/L (≈ 6.88 µM)
MIC Coagulase Negative Staphylococcus (GC 4547) [2]: 16 mg/L (≈ 13.8 µM)
MIC Coagulase Negative Staphylococcus (GC 4548) [2]: 16 mg/L (≈ 13.8 µM)
MIC Coagulase Negative Staphylococcus (GC 4549) [2]: 4 mg/L (≈ 3.44 µM)
MIC Coagulase Negative Staphylococcus (GC 4551) [2]: 32 mg/L (≈ 27.5 µM)
MIC Coagulase Negative Staphylococcus (GC 6257) [2]: 8 mg/L (≈ 6.88 µM)
MIC Streptococcus pneumoniae (ATCC 6301) ([3]; strain ATCC 6301; broth dilution, 18 hours at 35° C.): 32 mg/L (≈ 27.5 µM)
MIC Streptococcus pneumoniae (GC 1894) ([3]; strain GC 1894; broth dilution, 18 hours at 35° C.): 16 mg/L (≈ 13.8 µM)
MIC Streptococcus pyogenes (GC 4563) ([3]; strain GC 4563; broth dilution, 18 hours at 35° C.): 8 mg/L (≈ 6.88 µM)
MIC Streptococcus agalactiae (GC 4564) ([3]; strain GC 4564; broth dilution, 18 hours at 35° C.): 32 mg/L (≈ 27.5 µM)
MIC Streptococcus pneumoniae (GC 4565) ([3]; strain GC 4565; broth dilution, 18 hours at 35° C.): 32 mg/L (≈ 27.5 µM)
MIC Escherichia coli (ATCC 25922) ([4]; strain ATCC 25922, broth dilution): 64 mg/L (≈ 55.1 µM)
MIC Escherichia coli (GC 4559) ([4]; strain GC 4559, broth dilution): 64 mg/L (≈ 55.1 µM)
MIC Escherichia coli (GC 4560) ([4]; strain GC 4560, broth dilution): 16 mg/L (≈ 13.8 µM)

CC(c1ccccc1)C1NC(=O)CNC(=O)C(CO)NC(=O)C(CC2CN(Cc3ccccc3)C(=NCc3ccccc3)N2C2OC(CO)C(O)C(O)C2O)NC(=O)C(CC2CN(Cc3ccccc3)C(=NCc3ccccc3)N2Cc2ccccc2)NC(=O)C(Cc2ccc(OC3OC(CO)C(OC4OC(CO)C(O)C(O)C4O)C(O)C3O)cc2)NC1=O (stereo not drawn) [Example 73, Cyclo[3-[1,3-benzyl-2-(benzylimino)imidazolidin-4-yl]alanyl-3-[1-benzyl-2-(benzylimino)-3-hexopyranosylimidazolidin-4-yl]alanylserylglycyl-β-methylphenylalanyl-O-(4-O-hexopyranosylhexopyranosyl)tyrosyl]]
MIC Enterococcus avium (GC 4558) ([1]; Enterococcus avium (GC 4558); broth dilution, 18 hours at 35° C.): 128 mg/L (≈ 74.7 µM)
MIC Enterococcus faecalis (ATCC 29212) ([1]; Enterococcus faecalis (ATCC 29212); broth dilution, 18 hours at 35° C.): >128 mg/L
MIC Enterococcus faecalis (GC 4552) ([1]; Enterococcus faecalis (GC 4552); broth dilution, 18 hours at 35° C.): >128 mg/L
MIC Enterococcus faecalis (GC 4553) ([1]; Enterococcus faecalis (GC 4553); broth dilution, 18 hours at 35° C.): >128 mg/L
MIC Enterococcus faecalis (GC 4554) ([1]; Enterococcus faecalis (GC 4554); broth dilution, 18 hours at 35° C.): >128 mg/L
MIC Enterococcus faecalis (GC 6189) ([1]; Enterococcus faecalis (GC 6189); broth dilution, 18 hours at 35° C.): >128 mg/L
MIC Enterococcus faecium (GC 2243) ([1]; Enterococcus faecium (GC 2243); broth dilution, 18 hours at 35° C.): >128 mg/L
MIC Enterococcus faecium (GC 4556) ([1]; Enterococcus faecium (GC 4556); broth dilution, 18 hours at 35° C.): >128 mg/L
MIC Enterococcus faecium (GC 4557) ([1]; Enterococcus faecium (GC 4557); broth dilution, 18 hours at 35° C.): 128 mg/L (≈ 74.7 µM)
MIC Enterococcus avium (GC 4558) [1, 5]: 128 mg/L (≈ 74.7 µM)
MIC Enterococcus faecalis (ATCC 29212) [1, 5]: >128 mg/L
MIC Enterococcus faecalis (GC 2242) [1, 5]: >128 mg/L
MIC Enterococcus faecalis (GC 2691) [1, 5]: >128 mg/L
MIC Enterococcus faecalis (GC 3059) [1, 5]: >128 mg/L
MIC Enterococcus faecalis (GC 4552) [1, 5]: >128 mg/L
MIC Enterococcus faecalis (GC 4553) [1, 5]: >128 mg/L
MIC Enterococcus faecalis (GC 4554) [1, 5]: >128 mg/L
MIC Enterococcus faecalis (GC 6189) [1, 5]: >128 mg/L
MIC Enterococcus faecium (GC 2243) [1, 5]: >128 mg/L
MIC Enterococcus faecium (GC 4556) [1, 5]: >128 mg/L
MIC Enterococcus faecium (GC 4557) [1, 5]: 128 mg/L (≈ 74.7 µM)
MIC Enterococcus faecalis (GC 2242) ([1]; broth dilution, 18 hours at 35° C.; strain GC 2242): >128 mg/L
MIC Enterococcus faecalis (GC 2691) ([1]; broth dilution, 18 hours at 35° C.; strain GC 2691): >128 mg/L
MIC Enterococcus faecalis (GC 3059) ([1]; broth dilution, 18 hours at 35° C.; strain GC 3059): >128 mg/L
MIC Staphylococcus aureus (ATCC 29213) [2]: >128 mg/L
MIC Staphylococcus aureus (GC 1131) [2]: >128 mg/L
MIC Staphylococcus aureus (GC 3051) [2]: >128 mg/L
MIC Staphylococcus aureus (GC 3053) [2]: >128 mg/L
MIC Staphylococcus aureus (GC 4541) [2]: >128 mg/L
MIC Staphylococcus aureus (GC 4542) [2]: >128 mg/L
MIC Staphylococcus aureus-SMITH (GC 4543) [2]: >128 mg/L
MIC Staphylococcus aureus (GC 4544) [2]: >128 mg/L
MIC Staphylococcus aureus (GC 4545) [2]: >128 mg/L
MIC Staphylococcus haemolyticus (GC 4546) [2]: >128 mg/L
MIC Coagulase Negative Staphylococcus (GC 4547) [2]: >128 mg/L
MIC Coagulase Negative Staphylococcus (GC 4548) [2]: >128 mg/L
MIC Coagulase Negative Staphylococcus (GC 4549) [2]: >128 mg/L
MIC Coagulase Negative Staphylococcus (GC 4551) [2]: >128 mg/L
MIC Coagulase Negative Staphylococcus (GC 6257) [2]: >128 mg/L
MIC Streptococcus agalactiae (GC 4564) [3, 5]: >128 mg/L
MIC Streptococcus pneumoniae (ATCC 6301) [3, 5]: 128 mg/L (≈ 74.7 µM)
MIC Streptococcus pneumoniae (GC 1894) [3, 5]: 64 mg/L (≈ 37.3 µM)
MIC Streptococcus pneumoniae (GC 4565) [3, 5]: 128 mg/L (≈ 74.7 µM)
MIC Streptococcus pyogenes (GC 4563) [3, 5]: >128 mg/L
MIC Streptococcus pneumoniae (ATCC 6301) ([3]; broth dilution, 18 hours at 35° C.; strain ATCC 6301): 128 mg/L (≈ 74.7 µM)
MIC Streptococcus pneumoniae (GC 1894) ([3]; broth dilution, 18 hours at 35° C.; strain GC 1894): 64 mg/L (≈ 37.3 µM)
MIC Streptococcus pyogenes (GC 4563) ([3]; broth dilution, 18 hours at 35° C.; strain GC 4563): >128 mg/L
MIC Streptococcus agalactiae (GC 4564) ([3]; broth dilution, 18 hours at 35° C.; strain GC 4564): >128 mg/L
MIC Streptococcus pneumoniae (GC 4565) ([3]; broth dilution, 18 hours at 35° C.; strain GC 4565): 128 mg/L (≈ 74.7 µM)
MIC Escherichia coli (ATCC 25922) [4]: >128 mg/L
MIC Escherichia coli (GC 4559) [4]: >128 mg/L
MIC Escherichia coli (GC 4560) [4]: 16 mg/L (≈ 9.34 µM)
